Reference: US20030149000A1, “Method for the treatment of disorders associated with apoptosis using N-heterocyclic glyoxylamide compounds” (Shionogi & Co., Ltd., priority 1998, published 2003)

Experiments:
[1] = test system: hPLA2-II-induced neuronal cell death; assay: MTT reduction assay of neuronal survival after hPLA2-II treatment; assay type: cell-based, Sprague-Dawley rat
Experimental: (§1) According to a method disclosed in Neurosci. Lett. 203, 175-178 Ueda K. et al, Neuronal cultures were prepared from cerebral cortex of 19-day-old Sprague-Dawley rat embryos. The cerebral cortices were dissociated in isotonic buffer (137 mM NaCl, 5.4 mM KCl, 0.17 mM Na2HPO4, 0.22 mM KH2PO4, 5.5 mM Glucose, 59 mM Sucrose; volume of each buffer is 25 ml) with 4 mg/ml trypsin and 0.4 mg/ml deoxyribonuclease I. Cells were plated at a density of 2.5×10^5 cells/cm^2 on poly-L-lysine coated dishes in conditioning medium, Leibovitz's L-15 medium supplemented with 5% fetal calf serum and 5% horse serum. Culture medium was exchanged for conditioning medium containing 0.1 mM arabinosylcytosine C on day 1 after plating. Cultured neurons were used for the experiments on day 2 of culture.
For assessment of neurotoxicity of hPLA2-II according to a method disclosed in Neurosci. […] Absorbance at 570 nm were measured with a microplate reader.
[…] MTT reducing activity was determined 48 hr after hPLA2-II-treatment.
At the indicated time after the treatment with hPLA2-II (1 μM), the compound prepared in Example 2 (final concentration=10 μM) was added to the culture medium. Data are expressed as mean±SEM values (n=4). *P<0.05, **P<0.01, compared with vehicle-treated conditions by ANOVA followed by Dunnett's test. […]

[2] = rats after transient middle cerebral artery occlusion; cited from earlier work
cortical neurons = assay: Ultrastructural changes in cortical neurons after hPLA2-II treatment (electron microscope); assay type: cell-based, Sprague-Dawley rat; conditions: treated for 48 h
Experimental: as §1
Cells were treated with hPLA2-II for 48 h, and fixed in situ in 1-5% (especially 2.5%) glutaraldehyde in PBS for 2 h at 4° C. and post-fixed in 0.5-2% (especially 1% osmium tetraoxide). To increase contrast, cells were double-fixed in saturated thiocarbohydrazide-osmium. Afterwards, samples were dehydrated using a graded series of ethanol from 50-100%. Tissue culture dishes were embedded in Araldite or Epoxy resin (especially Epon 812), cured in vacuo for 48 h at 60-70° C. and sectioned. […]

CCc1c(C(=O)C(N)=O)c2c(OCC(=O)O)cccc2n1Cc1ccccc1 [Example 1, [[3-(2-Amino-1,2-dioxoethyl)-2-ethyl-1-(phenylmethyl)-1H-indol-4-yl]oxy]acetic acid]
suppression of hPLA2-II-induced neuronal death (MTT reducing activity), co-treatment ([1]; 3 μM hPLA2-II, 48 well-cultured neuron, FIG. 4): suppressed neuronal death completely depending on its concentration

CCc1c(C(=O)C(N)=O)c2c(OCC(=O)O)cccn2c1Cc1ccccc1-c1ccccc1 [Example 2, (8-(Carboxymethyloxy)-2-ethyl-3-(o-phenylbenzyl)indolizin-1-yl)glyoxylamide]
time after hPLA2-II treatment within which post-treatment with compound suppressed neuronal death completely ([1]; 1 μM hPLA2-II, compound added at 10 μM final concentration at indicated time after hPLA2-II, FIG. 3): ≤ 10 h

CCN(CC)CCCC(C)Nc1c2ccc(Cl)cc2nc2ccc(OC)cc12 (centres unmarked) [quinacrine]
infarct-size [2]: reduces infarct-size

B1: hPLA2-II: human PLA2-II, used to induce neuronal death in cultured cortical neurons (protein, UniProt P14555 21-144, looked up)
Phospholipase A2, membrane …: NLVNFHRMIKLTTGKEAALSYGFYGCHCGVGGRGSPKDATDRCCVTHDCCYKRLEKRGCGTKFLSYKFSNSGSRITCAKQDSCRSQLCECDKAAATCFARNKTTYNKKYQYYSNKHCRGSTPRC
morphology of neurons (cell bodies, neurites) after hPLA2-II treatment (cortical neurons; compared with untreated neurons): shrank cell bodies and lost their neurites | ultrastructural changes of neurons after hPLA2-II treatment (cortical neurons; electron microscope, compared with untreated cells, FIG. 1B): condensation and fragmentation of nuclear chromatin, lost of intracellular organelle other than mitochondria and blebbing of plasma membranes
